{"source": "patent US20240277861A1", "about": "“ANTI-HEPATITIS B VIRUS AGENT TARGETING HOST FACTOR LIPG” (PUROTECH BIO, INC., priority 2021, published 2024)", "molecules": {"B1": {"name": "FLAG-LIPG: purified form of FLAG-tagged LIPG added to PXB cells or plate (protein)", "chain": "SPVPFGPEGRLEDKLHKPKATQTEVKPSVRFNLRTSKDPEHEGCYLSVGHSQPLEDCSFNMTAKTFFIIHGWTMSGIFENWLHKLVSALHTREKDANVVVVDWLPLAHQLYTDAVNNTRVVGHSIARMLDWLQEKDDFSLGNVHLIGYSLGAHVAGYAGNFVKGTVGRITGLDPAGPMFEGADIHKRLSPDDADFVDVLHTYTRSFGLSIGIQMPVGHIDIYPNGGDFQPGCGLNDVLGSIAYGTITEVVKCEHERAVHLFVDSLVNQDKPSFAFQCTDSNRFKKGICLSCRKNRCNSIGYNAKKMRNKRNSKMYLKTRAGMPFRVYHYQMKIHVFSYKNMGEIEPTFYVTLYGTNADSQTLPLEIVERIEQNATNTFLVYTEEDLGDLLKIQLTWEGASQSWYNLWKEFRSYLSQPRNPGRELNIRRIRVKSGETQRKLTFCTEDPENTSISPGRELWFRKCRDGWRMKNETSPTVELPDYKDDDDK"}}, "key": {"[1]": {"system": "HBV-cccDNA", "conditions": "Patent Document 1; cited from earlier work"}, "[2]": {"system": "HBV", "test": "HBV attachment and uptake assay in HepG2-NTCP-C4-LIPG cells", "format": "cell-based", "conditions": "concentration-dependent", "description": "(§1) HBV-DNA and cccDNA were quantified by qPCR as described below. Total DNA was extracted from cells using DNeasy Blood & Tissue Kit (Qiagen, Hilden, Germany). HBV-DNA was quantified by qPCR analysis as previously reported (Honda. M. et al., J. Infect. Dis., 213, 1096-1106, 2016). The extracted DNA (50 ng) was treated with 10 U of Plasmid safe DNase I (Epicentre, Madison. WI) at 37° C. for 60 minutes and then treated at 70° C. for 30 minutes for DNase inactivation, cccDNA was quantified by qPCR analysis as previously reported (Honda, M. et al., J. Infect. Dis. 213, 1096-1106, 2016). Quantitative RT-PCR was performed as described below. The GenElute™ Mammalian Total RNA Miniprep Kit (Sigma-Aldrich) was used for extraction of total RNA, and the High Capacity cDNA Reverse Transcription Kit (Applied Biosystems, Carlsbad, CA) was used for cDNA synthesis. The 7500 Real Time PCR System (Applied Biosystems) was used for RT-PCR. Primers 5′-[…]-3′ (SEQ ID NO: 31) and 5′-[…]-3′ (SEQ ID NO: 32) and a probe 5′-FAM-[…]-MGB-3′ (SEQ ID NO: 33) were used for pregenomic RNA. Primer pairs and probes for LIPG, NTCP. 18SrRNA, and ACTB were obtained from the TaqMan assay reagents library.\nWhen the abundance of LIPG expression was compared among different liver cell lines. […] HepG2-NTCP-C4 cells with overexpression of FLAG-LIPG (HepG2-NTCP-C4-LIPG cells) were established (FIG. 2B), and the attachment and uptake of HBV into cells were assayed in the resulting cells. Heparin, which has been reported to inhibit HBV attachment (Schulze. A. et al., Hepatology 46: 1759-1768, 2007), and heparanase, an endo-β-D-glucuronidase that cleaves the heparan sulfate side chain in heparan sulfate proteoglycans (HSPGs) (Bame, KJ. Glycobiology,11: 91R-98R,2001), were used as control compounds. Cells (HepG2-NTCP-C4-LIPG cells and HepG2-NTCP-C4 control cells) were pretreated with these compounds for 1 hour and then with HBV at 4° C. for 3 hours to allow HBV to attach the cells, washed to wash out HBV, and further incubated at 37° C. for 12 hours to detect uptake of HBV (FIG. 2C). In addition, the cells were further cultured in a conventional culture medium for 3 days after HBV inoculation to detect HBV DNA and cccDNA in the cells (FIG. 2C). HBV attachment was detected by qPCR of HBV-DNA at 3 hours after HBV inoculation at 4° C. in the presence or absence of the compound (heparin or heparanase). HBV attachment (FIG. 2D), uptake (FIG. 2E), and replication of HBV DNA and cccDNA (FIGS. 2F and 2G) were all increased in the HepG2-NTCP-C4-LIPG cells compared to the HepG2-NTCP-C4 control cells.\nNext, the effect of a LIPG inhibitor (GSK-264220A) on HBV attachment and uptake was examined. […] At the same time, this inhibitor had no effect on HepG2-NTCP-C4 control cells."}, "[3]": {"system": "HBV", "test": "HBV attachment, uptake and replication in Huh7-LIPG cells", "format": "cell-based", "conditions": "Huh7-LIPG cells infected with HBV, 3 days after treatment", "description": "as §1\nWhen the abundance of LIPG expression was compared among different liver cell lines. […] HepG2-NTCP-C4 cells with overexpression of FLAG-LIPG (HepG2-NTCP-C4-LIPG cells) were established (FIG. 2B), and the attachment and uptake of HBV into cells were assayed in the resulting cells. Heparin, which has been reported to inhibit HBV attachment (Schulze. A. et al., Hepatology 46: 1759-1768, 2007), and heparanase, an endo-β-D-glucuronidase that cleaves the heparan sulfate side chain in heparan sulfate proteoglycans (HSPGs) (Bame, KJ. Glycobiology,11: 91R-98R,2001), were used as control compounds. […] HBV attachment was detected by qPCR of HBV-DNA at 3 hours after HBV inoculation at 4° C. in the presence or absence of the compound (heparin or heparanase). […]"}, "[4]": {"system": "HBV", "test": "HBV attachment and uptake assay in HepG2-NTCP-C4 cells", "format": "cell-based", "conditions": "HepG2-NTCP-C4 control cells", "description": "as §1, with “18SrRNA, and ACTB were obtained from the TaqMan assay reagents library.” left out\nWhen the abundance of LIPG expression was compared among different liver cell lines. […] HBV attachment was detected by qPCR of HBV-DNA at 3 hours after HBV inoculation at 4° C. in the presence or absence of the compound (heparin or heparanase). […]"}, "[5]": {"system": "HBV", "conditions": "in vitro cell system; cited from earlier work"}, "[6]": {"system": "LIPG-mediated HBV attachment and entry (preS1 peptide) in PXB cells", "test": "Uptake of TMR-labeled preS1 peptide into PXB cells (confocal microscopy)", "format": "cell-based, human", "conditions": "PXB cells treated with FLAG-LIPG 3 hours", "description": "FIG. 22-1 The effect of LIPG to promote HBV entry into cells and the effect of a LIPG-binding peptide and Netrin-1 to inhibit HBV entry into cells. A: PXB cells were mixed with a purified form of FLAG-LIPG and incubated for 3 hours. The resulting cells were mixed with a preS1 peptide fluorescently labeled with TMR (tetramethylrhodamine) and incubated for 30 minutes, and then observed with a confocal microscope. The fluorescence of the preS1 peptide was detected, and the fluorescence intensity was normalized to the DAPI fluorescence intensity. p<0.05. B: PXB cells were treated with 100 nM LIPG-binding peptide LIPH4-23S or LIPH4-NTNBS for 15 hours, and a purified form of FLAG-LIPG was added thereto, followed by incubation for 3 hours. The resulting cells were mixed with a preS1 peptide fluorescently labeled with TMR and incubated for 30 minutes, and then observed with a confocal microscope. The fluorescence of the preS1 peptide was detected, and the fluorescence intensity was normalized to the DAPI fluorescence intensity. *:p<0.05. C: PXB cells were mixed with Netrin-1 and incubated for 3 hours. […] The fluorescence of the preS1 peptide was detected, and the fluorescence intensity was normalized to the DAPI fluorescence intensity. *:p<0.05. […] The fluorescence of the preS1 peptide was detected, and the fluorescence intensity was normalized to the DAPI fluorescence intensity. […]"}, "[7]": {"target": "T1, binding between preS1 and heparan sulfate enhanced by LIPG (Homo sapiens, UniProt Q9Y5X9)", "T1 construct": "FLAG", "T1 sequence (Q9Y5X9 21-500)": "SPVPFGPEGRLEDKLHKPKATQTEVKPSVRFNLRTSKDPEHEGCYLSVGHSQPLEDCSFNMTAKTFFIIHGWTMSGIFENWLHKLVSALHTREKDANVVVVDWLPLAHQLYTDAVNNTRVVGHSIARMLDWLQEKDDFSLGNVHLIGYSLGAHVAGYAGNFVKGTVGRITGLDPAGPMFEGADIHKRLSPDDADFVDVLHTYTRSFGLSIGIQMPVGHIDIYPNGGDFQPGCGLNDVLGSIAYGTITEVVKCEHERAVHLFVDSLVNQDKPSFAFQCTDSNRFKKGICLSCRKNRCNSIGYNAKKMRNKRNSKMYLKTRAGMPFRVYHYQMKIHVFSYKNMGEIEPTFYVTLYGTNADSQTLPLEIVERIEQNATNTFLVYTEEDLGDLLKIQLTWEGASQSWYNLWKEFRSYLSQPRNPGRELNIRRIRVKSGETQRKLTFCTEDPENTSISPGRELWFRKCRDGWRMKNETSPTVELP", "test": "Plate assay of binding between preS1 peptide and immobilized heparan sulfate with FLAG-LIPG", "conditions": "10, 25, or 50 fmol of FLAG-LIPG per well", "description": "FIG. 22-2 The effect of LIPG to promote HBV entry into cells and the effect of a LIPG-binding peptide and Netrin-1 to inhibit HBV entry into cells. E: A biotin-labeled form of heparan sulfate was added to a streptavidin-coated 96 well plate and left overnight at 4° C. to allow the heparan sulfate to bind to the plate. This plate was washed with TBS, and 10, 25, or 50 fmol of FLAG-LIPG was then added to each well to allow the reaction to proceed at room temperature for 2 hours. After the plate was washed, 10 or 100 nmol of LIPG-binding peptide LIPH4-NTNBS, LIPH4-23S, LIPH4-NTNBSA, or LIPH4-23SA was added to each well to allow the treatment to proceed at room temperature for 1 hour. Subsequently, the plate was washed, and 0.1 nmol of preS1-TMR was added to each well to allow the treatment to proceed at room temperature for another 1 hour. The plate was washed and then placed in a plate reader to measure the fluorescence of TMR.\nFurthermore, PXB cells treated with Netrin-1 were further treated with FLAG-LIPG, and the uptake of the preS1 peptide was examined, to find that the enhancement of the uptake of the preS1 peptide by FLAG-LIPG was suppressed by Netrin-1 (FIG. 22D). In addition, a biotin-labeled heparan sulfate was immobilized on a streptavidin-coated plate and the preS1 peptide was added thereto to study the binding between the preS1 region of HBV and heparan sulfate present on the cell surface."}}}
{"molecule": "Cc1oc(S(=O)(=O)N2CCCCC2)cc1NC(=O)Nc1ccccc1", "note": "[GSK-264220A]", "values": [{"measurement": "HBV-cccDNA", "setting": "[1]", "result": "effective in reducing HBV-cccDNA"}, {"measurement": "HBV attachment (HBV-DNA)", "setting": "[2]; 3 hours after HBV inoculation at 4° C.", "result": "inhibited"}, {"measurement": "HBV uptake (HBV-DNA)", "setting": "[2]; 12 hours after being recultured at 37° C.", "result": "inhibited"}, {"measurement": "LIPG-mediated increase in HBV replication (cccDNA)", "setting": "[3]", "result": "reduced HBV replication"}, {"measurement": "HBV attachment and uptake", "setting": "[4]", "result": "no effect"}]}
{"molecule": "COc1cc2ncnc(Nc3ccc(F)c(Cl)c3)c2cc1OCCCN1CCOCC1", "note": "[gefitinib]", "values": [{"measurement": "HBV infection", "setting": "[5]", "result": "reduces HBV infection"}]}
{"molecule": "B1", "values": [{"measurement": "preS1 peptide present in the cells", "setting": "[6]", "result": "increased by FLAG-LIPG in a concentration-dependent manner"}, {"measurement": "binding between preS1 and heparan sulfate (TMR fluorescence)", "setting": "[7]", "result": "enhanced by FLAG-LIPG in a concentration-dependent manner"}]}
